Reference: patent publication US20080262053A1 (priority 2005, published 2008)

Legend:
[1] = test system: patients suffering from moderate to severe RLS
Source text: The expression moderate to severe RLS is used when patients reach a points score of >15 on the international RLS scale. The scale runs from 0 (no RLS symptoms) to 40 (severest form of RLS). Thus, in moderate to severe RLS, the symptoms usually occur more than twice a week.

RLS = conditions: open trials
[2] = test system: patients with idiopathic RLS; conditions: continuous treatment over 6 months or more
Experimental: The severity of the symptoms was determined by means of the difference between the time of randomisation after 6 months and the results after the end of the trial, according to the international RLS scale. The results of 147 patients were evaluated.

Question: Which results are given for CCCNC1CCc2nc(N)sc2C1.Cl.Cl (stereo not drawn) [pramipexole, 2-amino-6-n-propylamino-4,5,6,7-tetrahydrobenzo-thiazole dihydrochloride]?
Answer: patient-reported improvement in symptoms (quality of sleep, restlessness of the legs, etc.) ([1]; after only one week of treatment): significant improvements in all areas of symptoms; subjective impression of treated patients ([1]; majority of treated patients): great or very great improvement; improvement in the RLS symptoms ([1]; patients with moderate to severe RLS (>15 points on international RLS scale)): rapid improvement in the RLS symptoms; duration of improvement in the symptoms in RLS patients (lasting effect) ([1]; pramipexole administered continuously): at least 6 months; persistence of lasting clinical effects (RLS): ≥ 12 months; effect of continuous treatment on RLS symptoms [2]: lasting improvement in the RLS symptoms
